Results taken from patent US10806717B2, “Methods and compositions for improving cognitive function” (The Johns Hopkins University, priority 2013, dated 2020).

How the values were obtained:
[1] = system: aged-impaired (AI) rats; test: Radial Arm Maze task with one-hour delay, levetiracetam and/or valproate; assay type: in vivo, rat; conditions: valproate on its own
[2] = system: Memory-impaired aged rats; conditions: cited from earlier work
[3] = system: Memory-impaired aged rats; test: Water maze probe test after chronic brivaracetam; assay type: in vivo, rat; conditions: brivaracetam 2 mg/kg/day by osmotic mini-pump
Procedure: The radial arm maze experiments used acute administration of seletracetam (0-4 mg/kg), brivaracetam (0-4 mg/kg), or saline vehicle given by intraperitoneal injection (in a volume of 1 ml/kg) 30-40 min prior to test sessions. In the chronic treatment experiment, memory-impaired aged rats were implanted subcutaneously in the intrascapular region with osmotic mini-pumps (ALZET, Durect Corporation, Cupertino, Calif.) with brivaracetam (2 mg/kg/day) or saline vehicle starting two weeks prior to assessment in the water maze.
Rats were trained and tested in a novel water maze environment to assess the effect of drug treatment. The water maze used here was housed in a different building and was surrounded by curtains with a novel set of patterns relative to the maze used for initial assessment of cognitive status. The training protocol consisted of 6 trials per day for 2 days to locate a submerged escape platform. On each trial, a rat was released in the maze from one of four equally spaced starting positions around the perimeter of the pool. The starting position varied from trial to trial. […] The rat was then removed from the platform and placed in a holding cage for another 40 s before the next trial. Approximately 24 hr after the last training trial, a probe test in the absence of the escape platform was given to assess spatial memory.

[4] = system: Memory-impaired aged rats; test: Radial arm maze task with 2-hr delay, acute brivaracetam or seletracetam; assay type: in vivo, rat; conditions: acute i.p. 0.0625-4 mg/kg, 30-40 min before test; repeated measures ANOVA: brivaracetam p=0.039, seletracetam p=0.009
[5] = system: MAM-treated rats; conditions: cited from earlier work
[6] = system: MAM-treated rats; conditions: rat, in vivo; cited from earlier work

CCCC(CCC)C(=O)O [valproate, 2-propylpentanoate]
effective in reducing the number of errors ([1]; 25 mg/kg or 50 mg/kg subcutaneous): not
effective in reducing the number of errors ([1]; 100 mg/kg subcutaneous): effective
treatment of cognitive impairment ([2]; 50 mg/kg/day, chronic subcutaneous administration): not effective
performance in a memory test ([2]; 100 mg/kg/day, chronic subcutaneous administration): significantly improved
blood total valproate level ([2]; rat, in vivo): 10 μg/ml plasma

CCC[C@@H]1CC(=O)N([C@@H](CC)C(N)=O)C1 [brivaracetam]
spatial bias for the target quadrant compared to the other quadrants ([3]; 14 days, n=3/group, t(2)=10.000, p=0.010): significant spatial bias
time in the target annulus compared to vehicle-treated rats ([3]; t(4)=3.109, p=0.036): significantly more time
time in the target quadrant compared to vehicle-treated rats ([3]; t(4)=3.881, p=0.018): significantly more time
number of errors in the retention phase after 2-hr delay [4]: significant effect as a function of dose

C#Cc1ccc2c(c1)C(c1ccccc1F)=N[C@H](C)c1c(C(=O)OCC)ncn1-2 [SH-053-2′F—R—CH3]
number of spontaneously active DA neurons in the ventral tegmental area (VTA) ([5]; MAM rats, systemic or infused into ventral HPC, to levels of saline-treated rats): reduces
increased locomotor response to amphetamine ([5]; MAM-treated rats): reduced
cortical-evoked responses of HPC neurons ([5]; saline-treated and MAM-treated animals): diminished

NC1=N[C@H](O)[C@H]2[C@H]3O[C@]4(O)O[C@@H]([C@@H](O)[C@@]2(N1)[C@@H]4O)[C@]3(O)CO [tetrodotoxin]
augmented amphetamine-induced locomotor behavior [6]: normalized
elevated DA neuron population activity [6]: completely reversed

CC[C@@H](C(N)=O)N1C[C@H](C=C(F)F)CC1=O [seletracetam]
number of errors in the retention phase after 2-hr delay [4]: significant effect as a function of dose
